Assay results: US7118895B2, “Process for producing aglycon by using diglycosidase and flavor-improved food containing the aglycon and converting agent to be used in the process” (Amano Enzyme Inc., priority 2000, dated 2006)

Legend:
Purified diglycosidase = assay: Influence of free glucose on diglycosidase activity; type: biochemical, Penicillium multicolor IAM7153; settings: isolated aglycon amount at glucose 0% and 0.5 hour = 100%
Crude diglycosidase = assay: Examination of pH in the conversion into isoflavone aglycons by diglycosidase using soybean materials; type: biochemical, Penicillium multicolor IAM7153; set-up: Decomposition efficiency of genistin family in soymilk / Decomposition efficiency of genistin family in defatted soybean / Decomposition efficiency of daidzin family in defatted soybean: concentration or dose not given beside the values; settings: for Decomposition efficiency of genistin family in roasted soy flour: 55° C.
Method in brief: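 Conversion of glycosides to isoflavone aglycons was followed by HPLC after crude diglycosidase (1.88 AU/mL enzyme solution) acted at 55° C for up to 6 h on four soy materials, 50 mg each, held at pH 2–11.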

[1] = pH4.8, heat treatment of enzyme: no, reaction time 0 h
[2] = pH4.8, heat treatment of enzyme: no, reaction time 1 h
[3] = pH4.8, heat treatment of enzyme: no, reaction time 3 h

Structure (SMILES): O=C(O)CC(=O)OC[C@H]1O[C@@H](Oc2cc(O)c3c(=O)c(-c4ccc(O)cc4)coc3c2)[C@H](O)[C@@H](O)[C@@H]1O [malonylgenistin, 6″-O-malonylgenistin]
- Isolation of isoflavone aglycons by diglycosidase in presence of glucose (Purified diglycosidase; Glucose concentration 0 %): 100%
- Isolation of isoflavone aglycons by diglycosidase in presence of glucose (Purified diglycosidase; Glucose concentration 2 %): 152%
- Isolation of isoflavone aglycons by diglycosidase in presence of glucose (Purified diglycosidase; Glucose concentration 4 %): 164.7%
- Isolation of isoflavone aglycons by diglycosidase in presence of glucose (Purified diglycosidase; Glucose concentration 8 %): 163.5%
- Isolation of isoflavone aglycons by diglycosidase in presence of glucose (Purified diglycosidase; Glucose concentration 20 %): 139.5%
- Decomposition efficiency of genistin family in concentrated soybean protein (Crude diglycosidase; pH1.6, heat treatment of enzyme: no, reaction time 0 h): not detected
- Decomposition efficiency of genistin family in concentrated soybean protein (Crude diglycosidase; pH1.6, heat treatment of enzyme: no, reaction time 1 h): not detected
- Decomposition efficiency of genistin family in concentrated soybean protein (Crude diglycosidase; pH1.6, heat treatment of enzyme: no, reaction time 3 h): not detected
- Decomposition efficiency of genistin family in concentrated soybean protein (Crude diglycosidase; pH1.6, heat treatment of enzyme: no, reaction time 6 h): not detected
- Decomposition efficiency of genistin family in concentrated soybean protein (Crude diglycosidase; pH1.6, heat treatment of enzyme: yes, reaction time 6 h): not detected
- Decomposition efficiency of genistin family in roasted soy flour (Crude diglycosidase; pH2, heat treatment of enzyme no, reaction time 0 h): not detected
- Decomposition efficiency of genistin family in roasted soy flour (Crude diglycosidase; pH2, heat treatment of enzyme no, reaction time 1 h): not detected
- Decomposition efficiency of genistin family in roasted soy flour (Crude diglycosidase; pH2, heat treatment of enzyme no, reaction time 3 h): not detected
- Decomposition efficiency of genistin family in roasted soy flour (Crude diglycosidase; pH2, heat treatment of enzyme no, reaction time 6 h): not detected
- Decomposition efficiency of genistin family in roasted soy flour (Crude diglycosidase; pH2, heat treatment of enzyme yes, reaction time 6 h): not detected
- Decomposition efficiency of genistin family in soymilk (Crude diglycosidase; pH2.3, heat treatment of enzyme: no, reaction time 0 h): 58.2%
- Decomposition efficiency of genistin family in soymilk (Crude diglycosidase; pH2.3, heat treatment of enzyme: no, reaction time 1 h): 57.5%
- Decomposition efficiency of genistin family in soymilk (Crude diglycosidase; pH2.3, heat treatment of enzyme: no, reaction time 3 h): 54.1%
- Decomposition efficiency of genistin family in soymilk (Crude diglycosidase; pH2.3, heat treatment of enzyme: no, reaction time 6 h): 52.1%
- Decomposition efficiency of genistin family in soymilk (Crude diglycosidase; pH2.3, heat treatment of enzyme: yes, reaction time 6 h): 54.3%
- Decomposition efficiency of genistin family in defatted soybean (Crude diglycosidase; pH2.6, heat treatment of enzyme: no, reaction time 0 h): 43.8%
- Decomposition efficiency of genistin family in defatted soybean (Crude diglycosidase; pH2.6, heat treatment of enzyme: no, reaction time 1 h): 44.4%
- Decomposition efficiency of genistin family in defatted soybean (Crude diglycosidase; pH2.6, heat treatment of enzyme: no, reaction time 3 h): 45.4%
- Decomposition efficiency of genistin family in defatted soybean (Crude diglycosidase; pH2.6, heat treatment of enzyme: no, reaction time 6 h): 43.5%
- Decomposition efficiency of genistin family in defatted soybean (Crude diglycosidase; pH2.6, heat treatment of enzyme: yes, reaction time 6 h): 42.0%
- Decomposition efficiency of genistin family in concentrated soybean protein (Crude diglycosidase; pH2.7, heat treatment of enzyme: no, reaction time 0 h): not detected
- Decomposition efficiency of genistin family in concentrated soybean protein (Crude diglycosidase; pH2.7, heat treatment of enzyme: no, reaction time 1 h): not detected
- Decomposition efficiency of genistin family in concentrated soybean protein (Crude diglycosidase; pH2.7, heat treatment of enzyme: no, reaction time 3 h): not detected
- Decomposition efficiency of genistin family in concentrated soybean protein (Crude diglycosidase; pH2.7, heat treatment of enzyme: no, reaction time 6 h): not detected
- Decomposition efficiency of genistin family in concentrated soybean protein (Crude diglycosidase; pH2.7, heat treatment of enzyme: yes, reaction time 6 h): not detected
- Decomposition efficiency of genistin family in roasted soy flour (Crude diglycosidase; pH3, heat treatment of enzyme no, reaction time 0 h): not detected
- Decomposition efficiency of genistin family in roasted soy flour (Crude diglycosidase; pH3, heat treatment of enzyme no, reaction time 1 h): not detected
- Decomposition efficiency of genistin family in roasted soy flour (Crude diglycosidase; pH3, heat treatment of enzyme no, reaction time 3 h): not detected
- Decomposition efficiency of genistin family in roasted soy flour (Crude diglycosidase; pH3, heat treatment of enzyme no, reaction time 6 h): not detected
- Decomposition efficiency of genistin family in roasted soy flour (Crude diglycosidase; pH3, heat treatment of enzyme yes, reaction time 6 h): not detected
- Decomposition efficiency of genistin family in defatted soybean (Crude diglycosidase; pH3.4, heat treatment of enzyme: no, reaction time 0 h): 43.8%
- Decomposition efficiency of genistin family in defatted soybean (Crude diglycosidase; pH3.4, heat treatment of enzyme: no, reaction time 1 h): 41.6%
- Decomposition efficiency of genistin family in defatted soybean (Crude diglycosidase; pH3.4, heat treatment of enzyme: no, reaction time 3 h): 36.4%
- Decomposition efficiency of genistin family in defatted soybean (Crude diglycosidase; pH3.4, heat treatment of enzyme: no, reaction time 6 h): 30.4%
- Decomposition efficiency of genistin family in defatted soybean (Crude diglycosidase; pH3.4, heat treatment of enzyme: yes, reaction time 6 h): 39.8%
- Decomposition efficiency of genistin family in soymilk (Crude diglycosidase; pH3.5, heat treatment of enzyme: no, reaction time 0 h): 58.2%
- Decomposition efficiency of genistin family in soymilk (Crude diglycosidase; pH3.5, heat treatment of enzyme: no, reaction time 1 h): 27.9%
- Decomposition efficiency of genistin family in soymilk (Crude diglycosidase; pH3.5, heat treatment of enzyme: no, reaction time 3 h): 7.5%
- Decomposition efficiency of genistin family in soymilk (Crude diglycosidase; pH3.5, heat treatment of enzyme: no, reaction time 6 h): 2.7%
- Decomposition efficiency of genistin family in soymilk (Crude diglycosidase; pH3.5, heat treatment of enzyme: yes, reaction time 6 h): 52.7%
- Decomposition efficiency of genistin family in concentrated soybean protein (Crude diglycosidase; pH3.7, heat treatment of enzyme: no, reaction time 0 h): not detected
- Decomposition efficiency of genistin family in concentrated soybean protein (Crude diglycosidase; pH3.7, heat treatment of enzyme: no, reaction time 1 h): not detected
- Decomposition efficiency of genistin family in concentrated soybean protein (Crude diglycosidase; pH3.7, heat treatment of enzyme: no, reaction time 3 h): not detected
- Decomposition efficiency of genistin family in concentrated soybean protein (Crude diglycosidase; pH3.7, heat treatment of enzyme: no, reaction time 6 h): not detected
- Decomposition efficiency of genistin family in concentrated soybean protein (Crude diglycosidase; pH3.7, heat treatment of enzyme: yes, reaction time 6 h): not detected
- Decomposition efficiency of genistin family in roasted soy flour (Crude diglycosidase; pH4, heat treatment of enzyme no, reaction time 0 h): not detected
- Decomposition efficiency of genistin family in roasted soy flour (Crude diglycosidase; pH4, heat treatment of enzyme no, reaction time 1 h): not detected
- Decomposition efficiency of genistin family in roasted soy flour (Crude diglycosidase; pH4, heat treatment of enzyme no, reaction time 3 h): not detected
- Decomposition efficiency of genistin family in roasted soy flour (Crude diglycosidase; pH4, heat treatment of enzyme no, reaction time 6 h): not detected
- Decomposition efficiency of genistin family in roasted soy flour (Crude diglycosidase; pH4, heat treatment of enzyme yes, reaction time 6 h): not detected
- Decomposition efficiency of genistin family in defatted soybean (Crude diglycosidase; [1]): 43.2%
- Decomposition efficiency of genistin family in soymilk (Crude diglycosidase; [1]): 58.6%
- Decomposition efficiency of genistin family in defatted soybean (Crude diglycosidase; [2]): 42.8%
- Decomposition efficiency of genistin family in soymilk (Crude diglycosidase; [2]): 41.0%
- Decomposition efficiency of genistin family in defatted soybean (Crude diglycosidase; [3]): 37.5%
- Decomposition efficiency of genistin family in soymilk (Crude diglycosidase; [3]): 23.9%
- Decomposition efficiency of genistin family in defatted soybean (Crude diglycosidase; pH4.8, heat treatment of enzyme: no, reaction time 6 h): 31.1%
